Measured values: US20220233743A1, “WOUND CLOSURE ENHANCEMENT METHODS AND MATERIALS VIA MANIPULATION OR AUGMENTATION OF LIPIN-1” (Board of Supervisors of Louisiana State University and …, priority 2019, published 2022)

Assays:
Type in all cases: cell-based, mouse
BMDMs [1] = assay: Phagocytosis assay with pHrodo green zymosan particles; conditions: IL-4 stimulated (20 ng/ml, 24 h) lipin-1mKO BMDMs vs wild type BMDMs
Method: Bone marrow-derived macrophages (5×10^5 cells) were cultured on sterile coverslips in culture wells and treated with 20 ng/ml IL-4 for 24 h. Culture medium was then replaced with DMEM, containing pHrodo™ green Zymosan A BioParticles® (Thermo Fisher Scientific, P35365) such that each well receives 0.1 mg zymosan particles. BMDMs were allowed to phagocytose for 1 h under dark incubation and then the assay was stopped by cold PBS wash. Cells seeded on coverslips were then fixed using 4% formaldehyde. Cells on cover slips were washed three times and then stained with DAPI slowfade (Invitrogen, S36938). Immunofluorescent images were taken using Olympus BX51 and evaluated using Image J (1.50a) analysis software. Phagocytic efficiency for each image was calculated by dividing the total number of fluorescent beads by the total number of nuclei in the fluorescent image, thus giving average number of beads per cell. Experiment was performed 3 times with 4 random images per group (n=12).
Macrophages with a wound healing phenotype can have increased phagocytic capabilities. The inventors investigated the ability of BMDMs to phagocytize zymosan beads. The inventors mock treated or IL-4 treated BMDMs from lipin-1^mKO or litter mate controls for 24 h. […] The inventors then imaged using fluorescent microscopy and quantified average number of particles per cell.

BMDMs [2] = assay: IL-4 mediated wound-healing gene expression, qRT-PCR; conditions: 20 ng/ml IL-4 for 4 h
Method: Bone marrow-derived macrophages were treated with IL-4 (R&D Biosystems, 404-ML-050) for 4 h and mRNA was extracted from the cultured cells using RNeasy Mini Kit (Qiagen—74106) as per manufacturer's instructions. cDNA template was generated using qScript cDNA SuperMix (Quantabio, 95048). qRT-PCR was performed in a Biorad iCycler with SsoAdvanced Universal SYBER Green SuperMix (Biorad, 172-5271). Primers (FIG. 42) were obtained from the Harvard primer bank database. Primer specificity was confirmed using primer BLAST and by verifying the presence of a single peak in melt curve analysis. Results were expressed as fold change relative to IL-4 treated WT cells by 2^−ΔΔCt method after normalizing with GAPDH.
Pro-inflammatory response in macrophages is influenced by lipin-1, but if lipin-1 contributes to wound healing responses by macrophages is unknown. The inventors have previously generated lipin-1^mEnzyKO mice that express a truncated lipin-1 protein lacking lipin-1 enzymatic activity but retain transcriptional co-regulatory function in myeloid cells. […] BMDMs from lipin-1^mEnzyKO, lipin-1^mKO, and appropriate littermate controls were stimulated with 20 ng/ml of IL-4 for 4 h. mRNA was isolated and analyzed for the expression of several canonical wound-healing associated genes: Arg1, Socs2, Ccl17, Mannr, Il10, and Pparg. […]

BMDMs [3] = assay: Mitochondrial bioenergetics, Seahorse OCR after IL-4
Method: BMDMs collected from lipin-1^mEnzyKO, lipin-1^mKO, and littermate control mice were seeded at a density of 150,000 cells per well on XF24 cell culture microplates and allowed to incubate for 4 h. Experiments were conducted in XF assay medium containing 25 mM glucose, 2 mM 1-glutamine, and 1 mM sodium pyruvate and analyzed using a Seahorse XFe 24 extracellular flux analyzer (Agilent Technologies). Where indicated, the following were injected: ATP-synthesis inhibitor oligomycin (Oligo; 1 μM), carbonyl cyanide 4-(trifluoromethoxy)phenylhydrazone (FCCP) (2 μM) to uncouple ATP synthesis, rotenone (100 nM) to block complex I, and antimycin A (1 μM) (Sigma-Aldrich) to block complex III. Oxygen consumption rate (OCR) was analyzed using Wave Desktop software (Agilent Technologies).
IL-4 stimulation polarizes macrophages toward a proresolving macrophage and elicits increased (3-oxidation and oxidative phosphorylation. In hepatocytes and skeletal muscle cells, lipin-1 promotes β-oxidation and oxidative phosphorylation. The inventors wanted to investigate if lipin-1 promoted oxidative phosphorylation in macrophages in response to IL-4. The inventors used BMDMs from lipin-1^mEnzyKO (EKO), lipin-1^mKO (KO), and littermate controls (wild type [WT]) to determine the contribution of the enzymatic activity and infer the contribution of the transcriptional coregulatory activity toward induction of oxidative phosphorylation. BMDMs from EKO, KO, and WT mice were stimulated with 40 ng/ml IL-4 for 4 h, and cellular bioenergetics were analyzed by Seahorse extracellular flux analyzer (Agilent Technologies). There were no differences in respiration between unstimulated WT and EKO macrophages (FIGS. 1 and 3). […] The inventors next tested if lipin-1 transcriptional coregulatory activity contributes to oxidative metabolism in macrophages. WT and lipin-1 KO macrophages were stimulated with IL-4 for 4 h, and cellular bioenergetics were analyzed. There was no difference in respiration between unstimulated WT and lipin-1 KO BMDMs (FIGS. 4 and 6).

## IL-4: cytokine IL-4 (R&D Biosystems, 404-ML-050) used to stimulate macrophages; optional component of the claimed composition
BMDMs [1]
  zymosan particles per cell: fewer particles per cell
BMDMs [2]; lipin-1mEnzyKO BMDMs vs WT BMDMs
  expression of IL-4 elicited genes: equivalent expression
BMDMs [2]; lipin-1mKO BMDMs vs wild type or lipin-1mEnzyKO
  IL-4 elicited gene expression (Arg1, Socs2, Ccl17, Mannr, Il10, Pparg): significantly lower
BMDMs [3]; EKO (lipin-1mEnzyKO) BMDMs, 40 ng/ml IL-4 for 4 h
  OCR in response to IL-4 stimulation: equivalent increase in OCR
BMDMs [3]; WT BMDMs, 40 ng/ml IL-4 for 4 h
  OCR in response to IL-4 stimulation: increased OCR
BMDMs [3]; lipin-1 KO BMDMs, IL-4 for 4 h
  OCR in response to IL-4 stimulation: failed to increase OCR
